The results in this text go back to paper PMC9443684 (RSC Advances, 2022).

Structures are written as SMILES.

For test [1], the system named is MCF-7 cancer cell line. In words: MTT assay, anticancer activity against MCF-7. To be noted: Homo sapiens; for inhibition at 10 µM: MCF7, read-out: Cell growth inhibition (GI%); for IC50: MCF7, 48 h, read-out: Anticancer activity IC50. Format: cell-based. A general note: Tetrazolium assays rely on reduction of a dye to a coloured formazan, in cell work by metabolically active cells.

Test [2] concerns HepG2 cancer cell line. In words: MTT assay, anticancer activity against HepG2. Conditions: Homo sapiens; for inhibition at 10 µM: HepG2, read-out: Cell growth inhibition (GI%); for IC50: HepG2, 48 h, read-out: Anticancer activity IC50. In kind it is cell-based.
For test [3], the system named is HCT-116 cancer cell line. Nature of the test: MTT assay, anticancer activity against HCT-116. In kind it is cell-based. Conditions: Homo sapiens; for inhibition at 10 µM: HCT-116, read-out: Cell growth inhibition (GI%); for IC50: HCT-116, 48 h, read-out: Anticancer activity IC50.
The target of test [4] is T1, COX-1 (Ovis aries, UniProt P05979).
T1 sequence (P05979 25-600): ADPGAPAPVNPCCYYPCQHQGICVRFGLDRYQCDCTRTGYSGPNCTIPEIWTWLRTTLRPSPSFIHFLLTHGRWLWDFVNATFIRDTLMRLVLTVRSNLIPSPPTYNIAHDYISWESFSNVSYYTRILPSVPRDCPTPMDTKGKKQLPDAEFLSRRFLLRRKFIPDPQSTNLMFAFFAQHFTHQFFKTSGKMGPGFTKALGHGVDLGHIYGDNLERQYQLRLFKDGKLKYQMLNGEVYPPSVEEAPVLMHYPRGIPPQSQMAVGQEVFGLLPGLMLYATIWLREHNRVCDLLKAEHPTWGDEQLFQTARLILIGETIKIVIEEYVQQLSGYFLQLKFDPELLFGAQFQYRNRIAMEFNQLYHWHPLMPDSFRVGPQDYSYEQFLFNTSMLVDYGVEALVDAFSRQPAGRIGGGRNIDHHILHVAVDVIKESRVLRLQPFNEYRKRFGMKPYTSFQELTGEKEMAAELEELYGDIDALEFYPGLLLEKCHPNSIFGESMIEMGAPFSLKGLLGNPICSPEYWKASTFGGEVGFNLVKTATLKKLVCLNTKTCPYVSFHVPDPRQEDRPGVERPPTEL
In words: In vitro cyclooxygenase. In kind it is biochemical, ovine.

Test [5] deals with T2, COX-2 (Ovis aries, UniProt P79208).
T2 sequence (P79208 17-603): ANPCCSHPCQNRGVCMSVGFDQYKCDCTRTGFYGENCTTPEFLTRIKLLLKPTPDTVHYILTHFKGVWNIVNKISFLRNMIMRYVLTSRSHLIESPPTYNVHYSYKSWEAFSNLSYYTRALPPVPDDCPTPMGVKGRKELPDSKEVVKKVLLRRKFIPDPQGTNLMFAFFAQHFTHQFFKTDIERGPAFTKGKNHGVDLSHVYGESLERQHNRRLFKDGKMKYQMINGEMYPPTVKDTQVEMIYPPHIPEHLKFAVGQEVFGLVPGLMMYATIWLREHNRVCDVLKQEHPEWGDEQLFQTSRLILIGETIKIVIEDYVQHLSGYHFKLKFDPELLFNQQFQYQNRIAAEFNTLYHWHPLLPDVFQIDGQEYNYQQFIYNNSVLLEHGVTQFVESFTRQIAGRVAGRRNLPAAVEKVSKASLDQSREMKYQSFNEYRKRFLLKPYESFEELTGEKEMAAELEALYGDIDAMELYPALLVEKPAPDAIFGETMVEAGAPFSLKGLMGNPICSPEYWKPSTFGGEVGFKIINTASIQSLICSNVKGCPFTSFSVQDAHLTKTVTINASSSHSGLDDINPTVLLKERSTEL
Nature of the test: In vitro cyclooxygenase. To be noted: for SI (selectivity index): IC50 (COX-1)/IC50 (COX-2). In kind it is biochemical, ovine.

Test [6] concerns MCF-7, HepG2 and HCT-116 cancer cell lines. In words: MTT assay, statements over the three cancer cell lines together. To be noted: for IC50: read-out: Anticancer activity IC50 against the three cancer cell lines; for inhibition at 10 µM: read-out: Growth inhibition against the three cancer cell lines. Format: cell-based.
The target of test [7] is EGFR (Homo sapiens, UniProt P00533). In words: In vitro EGFR-TK inhibition assay. In kind it is biochemical.
Chain of EGFR (P00533 25-1210): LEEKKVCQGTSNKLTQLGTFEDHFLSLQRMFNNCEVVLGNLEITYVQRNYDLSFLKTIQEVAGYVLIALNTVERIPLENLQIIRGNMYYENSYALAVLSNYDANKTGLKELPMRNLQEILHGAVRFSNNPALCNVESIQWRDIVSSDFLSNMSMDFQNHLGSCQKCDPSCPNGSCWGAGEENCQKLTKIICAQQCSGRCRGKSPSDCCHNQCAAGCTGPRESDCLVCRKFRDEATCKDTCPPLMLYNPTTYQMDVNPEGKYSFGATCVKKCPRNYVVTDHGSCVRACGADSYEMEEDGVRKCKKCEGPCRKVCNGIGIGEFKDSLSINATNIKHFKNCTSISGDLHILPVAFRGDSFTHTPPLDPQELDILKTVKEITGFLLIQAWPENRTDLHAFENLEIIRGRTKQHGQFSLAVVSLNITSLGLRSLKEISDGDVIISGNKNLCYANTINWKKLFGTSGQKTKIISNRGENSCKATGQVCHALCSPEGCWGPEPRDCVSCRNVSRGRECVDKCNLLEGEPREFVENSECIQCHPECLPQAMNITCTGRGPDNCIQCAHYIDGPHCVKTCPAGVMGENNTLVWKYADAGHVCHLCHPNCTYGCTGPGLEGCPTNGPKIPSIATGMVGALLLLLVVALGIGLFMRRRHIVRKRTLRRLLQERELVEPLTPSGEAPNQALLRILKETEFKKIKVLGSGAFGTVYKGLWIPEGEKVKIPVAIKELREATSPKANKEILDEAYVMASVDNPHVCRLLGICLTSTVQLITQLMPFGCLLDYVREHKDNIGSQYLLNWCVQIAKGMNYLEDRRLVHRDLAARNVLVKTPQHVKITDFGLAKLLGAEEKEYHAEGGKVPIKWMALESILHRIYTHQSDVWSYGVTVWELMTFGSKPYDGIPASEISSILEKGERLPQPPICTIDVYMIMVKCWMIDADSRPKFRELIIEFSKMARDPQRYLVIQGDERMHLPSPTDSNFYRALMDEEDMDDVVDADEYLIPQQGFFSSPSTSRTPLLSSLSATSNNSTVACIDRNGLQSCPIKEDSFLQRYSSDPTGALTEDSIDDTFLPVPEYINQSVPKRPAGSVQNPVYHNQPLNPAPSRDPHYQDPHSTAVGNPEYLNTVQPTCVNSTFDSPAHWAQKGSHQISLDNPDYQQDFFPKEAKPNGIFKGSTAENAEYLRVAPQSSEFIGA

The term inhibition denotes the percentage by which the read-out fell short of the control. Turning to `Cn1c(=O)c(C(=O)NN=Cc2ccccc2)nc2ccccc21` [Compound 2a, N′-benzylidene-4-methyl-3-oxo-3,4-dihydroquinoxaline-2-carbohydrazide], the inhibition at 10 µM in test [1] came to 82.85 ± 0.49%; in test [2], 89.21 ± 0.63%; in test [3], 69.25 ± 0.45%.

What is called IC50 is the concentration that inhibits the measured activity by half. In the case of `Cn1c(=O)c(C(=O)N/N=C/c2ccc(Cl)cc2)nc2ccccc21` [Compound 2b, (E)-N′-(4-chlorobenzylidene)-4-methyl-3-oxo-3,4-dihydroquinoxaline-2-carbohydrazide], the IC50 was 15.98 ± 0.06 µM in test [1]; 12.41 ± 0.05 µM in test [2]; 16.3 ± 0.24 µM in test [3]; 4.42 ± 1.67 µM in test [4]; 5260 ± 490 nM in test [5]; greater than 10 µM in test [6]. The inhibition at 10 µM in test [1] came to 95.5 ± 1.25%; in test [2], 90.76 ± 0.29%; in test [3] it was 88.68 ± 0.52%. Further, in test [5], the “SI (selectivity index)” value is listed as 0.84.

As for `Cn1c(=O)c(C(=O)NN=Cc2ccc(O)cc2)nc2ccccc21` [Compound 2c, N′-(4-hydroxybenzylidene)-4-methyl-3-oxo-3,4-dihydroquinoxaline-2-carbohydrazide], the inhibition at 10 µM is 69.72 ± 0.46% in test [1], 77.95 ± 0.56% in test [2], 61.92 ± 0.55% in test [3] and no less than 88.7% in test [6].

Regarding `Cn1c(=O)c(C(=O)N/N=C/c2ccc3c(c2)OCO3)nc2ccccc21` [Compound 2d, (E)-N′-(benzo[d][1,3]dioxol-5-ylmethylene)-4-methyl-3-oxo-3,4-dihydroquinoxaline-2-carbohydrazide], the inhibition at 10 µM in test [1] was determined as 50.14 ± 0.46%; in test [2] it was 56.95 ± 0.35%; in test [3] it was 59.5 ± 0.78%.

`Cn1c(=O)c(C(=O)N/N=C2\C(=O)Nc3ccccc32)nc2ccccc21` [Compound 4a, (Z)-4-Methyl-3-oxo-N′-(2-oxoindolin-3-ylidene)-3,4-dihydroquinoxaline-2-carbohydrazide]: the half-maximal inhibitory concentration (IC50) amounted to 4.42 ± 0.12 µM in test [1]; 4.23 ± 0.09 µM in test [2]; 4.54 ± 0.19 µM in test [3]; 28.8 ± 1.02 µM in test [4]; 1170 ± 150 nM in test [5]; 300 ± 10 nM in test [7]. In test [6], the IC50 is 3.21 to 4.54 µM. Also, the inhibition at 10 µM in test [1] is 90.14 ± 0.76%; in test [2], 91.82 ± 0.35%; in test [3], 92.79 ± 0.15%; in test [6], no less than 88.7%. Moreover, the “SI (selectivity index)” value in test [5] came to 24.61.

Consider `CN1C(=O)/C(=N\NC(=O)c2nc3ccccc3n(C)c2=O)c2ccccc21` [Compound 4b, (Z)-4-Methyl-N′-(1-methyl-2-oxoindolin-3-ylidene)-3-oxo-3,4-dihydroquinoxaline-2-carbohydrazide], for which the inhibition at 10 µM in test [1] came out at 61.47 ± 0.37%; in test [2] it was 52.4 ± 0.74%; in test [3], 59.46 ± 0.27%.

Take `C/C(=N\NC(=O)c1nc2ccccc2n(C)c1=O)c1cc2ccccc2oc1=O` [Compound 5, (E)-4-Methyl-3-oxo-N′-(1-(2-oxo-2H-chromen-3-yl)ethylidene)-3,4-dihydroquinoxaline-2-carbohydrazide]: the half-inhibitory concentration (IC50) turned out to be 3.21 ± 0.1 µM in test [1]; 3.62 ± 0.21 µM in test [2]; 3.46 ± 0.15 µM in test [3]; 40.3 ± 3.35 µM in test [4]; 830 ± 400 nM in test [5]; 900 ± 10 nM in test [7]. The IC50 in test [6] fell in the range of 3.21 to 4.54 µM. In addition, the inhibition at 10 µM in test [1] is 91.47 ± 0.25%; in test [2], 90.79 ± 0.21%; in test [3], 93.75 ± 0.29%; in test [6], no less than 88.7%. For the same compound, the “SI (selectivity index)” value in test [5] was found to be 48.58.

For `Cn1c(=O)c(C(=O)N/N=C/C(O)C(O)C(O)CO)nc2ccccc21` (stereo not drawn) [Compound 6, (E)-4-Methyl-3-oxo-N′-(2,3,4,5-tetrahydroxypentylidene)-3,4-dihydroquinoxaline-2-carbohydrazide], the inhibition at 10 µM in test [1] was 10.8 ± 0.76%; in test [2] it was 21.4 ± 0.52%; in test [3], 41.8 ± 1.27%.

For the compound `Cn1c(=O)c(C(=O)N/N=C/C(O)C(O)C(O)C(O)CO)nc2ccccc21` (stereo not drawn) [Compound 7, (E)-4-Methyl-3-oxo-N′-(2,3,4,5,6-pentahydroxyhexylidene)-3,4-dihydroquinoxaline-2-carbohydrazide], the inhibition at 10 µM in test [1] was 10.3 ± 0.48%; in test [2] it was 26.4 ± 0.83%; in test [3], 33.9 ± 1.27%.

As for `CC(=O)C/C(=N/NC(=O)c1nc2ccccc2n(C)c1=O)c1ccccc1` [Compound 9, (Z)-4-methyl-3-oxo-N′-(3-oxo-1-phenylbutylidene)-3,4-dihydroquinoxaline-2-carbohydrazide], the IC50 in test [1] came out at 6.84 ± 0.07 µM; in test [2] it was 5.54 ± 0.27 µM; in test [3], 8.75 ± 0.25 µM; in test [4], 38.7 ± 1.27 µM; in test [5], 2210 ± 140 nM. The inhibition at 10 µM is 92.97 ± 0.54% in test [1], 96.83 ± 0.29% in test [2], 97.89 ± 0.69% in test [3] and no less than 88.7% in test [6]. In addition, the “SI (selectivity index)” value in test [5] turned out to be 17.52.

Regarding `CN1c2ccccc2N=C(C(=O)NN)C1N=N` (stereo not drawn) [Compound 10, 3-Diazenyl-4-methyl-3,4-dihydroquinoxaline-2-carbohydrazide], the figures for the inhibition at 10 µM in test [1], in test [2] and in test [3] were 49.8 ± 0.86%, 52.4 ± 0.69% and 86.6 ± 1.31%, respectively.

As to `Cn1c(=O)c(C(=O)NNC(=O)CC(=O)c2ccccc2)nc2ccccc21` [Compound 11, 4-Methyl-3-oxo-N′-(3-oxo-3-phenylpropanoyl)-3,4-dihydroquinoxaline-2-carbohydrazide], the IC50 in test [1] is 2.91 ± 0.23 µM; in test [2], 2.41 ± 0.07 µM; in test [3], 2.38 ± 0.26 µM; in test [4], 38 ± 0.66 µM; in test [5], 620 ± 70 nM; in test [7], 600 ± 40 nM. The IC50 in test [6] fell in the range of 0.81 to 2.91 µM. Moreover, the inhibition at 10 µM is 92.57 ± 0.43% in test [1], 92.78 ± 0.38% in test [2], 97.63 ± 0.16% in test [3] and no less than 88.7% in test [6]. Moreover, in test [5], the “SI (selectivity index)” value is 61.23.

For the compound `Cc1cc(C)n(C(=O)c2nc3ccccc3n(C)c2=O)n1` [Compound 12, 3-(3,5-Dimethyl-1H-pyrazole-1-carbonyl)-1-methylquinoxalin-2(1H)-one], the figures for the inhibition at 10 µM in test [1], in test [2] and in test [3] were 33.5 ± 0.82%, 53.8 ± 1.38% and 49.2 ± 1.23%, respectively.

Regarding `Cn1c(=O)c(-c2nnco2)nc2ccccc21` [Compound 14, 1-Methyl-3-(1,3,4-oxadiazol-2-yl)quinoxalin-2(1H)-one], the inhibition at 10 µM was 29.3 ± 0.63% in test [1], 25.7 ± 1.67% in test [2] and 33.3 ± 1.32% in test [3].

In the case of `Cn1c(=O)c(-c2n[nH]c(=S)o2)nc2ccccc21` [Compound 15, 1-Methyl-3-(5-thioxo-4,5-dihydro-1,3,4-oxadiazol-2-yl)quinoxalin-2(1H)-one], the inhibition at 10 µM turned out to be 43.5 ± 0.63% in test [1], 59.5 ± 1.92% in test [2] and 76.3 ± 1.22% in test [3].

For `COc1cccc2c1C(=O)c1c(O)c3c(c(O)c1C2=O)C[C@@](O)(C(=O)CO)C[C@@H]3O[C@H]1C[C@H](N)[C@H](O)[C@H](C)O1` [Doxorubicin, doxorubicin, reference compound], the half-inhibitory concentration (IC50) in test [1] was 0.9 ± 0.02 µM; in test [2] it was 1.21 ± 0.08 µM; in test [3], 0.51 ± 0.03 µM.
